{"source": "patent US7560482B2", "about": "“Inhibitors of plasmepsins” (The Johns Hopkins University, priority 2001, dated 2009)", "key": {"[1]": {"biological_target": "T1, plasmepsin II from Plasmodium falciparum (Plm II) (Plasmodium falciparum, UniProt P46925)", "T1 construct": "made in house; host or cells: Escherichia coli", "T1 sequence (P46925 125-453)": "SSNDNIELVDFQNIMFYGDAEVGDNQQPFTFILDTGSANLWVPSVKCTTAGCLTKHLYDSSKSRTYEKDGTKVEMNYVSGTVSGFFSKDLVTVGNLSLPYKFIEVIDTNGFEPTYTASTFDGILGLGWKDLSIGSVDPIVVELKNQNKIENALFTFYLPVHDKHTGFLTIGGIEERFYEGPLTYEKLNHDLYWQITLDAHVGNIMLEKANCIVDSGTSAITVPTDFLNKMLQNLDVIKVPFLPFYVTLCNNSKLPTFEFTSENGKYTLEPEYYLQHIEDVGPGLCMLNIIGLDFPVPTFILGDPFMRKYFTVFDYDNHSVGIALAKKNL", "experiment": "Plasmepsin II inhibition assay, hydrolysis of chromogenic substrate", "type": "biochemical", "conditions": "for Discrimination Factor: Fold Selectivity for Plasmepsin II over Cathepsin D: ratio of the Ki for Cathepsin D to the Ki for Plasmepsin II", "experimental": "FIG. 7A-C. Inhibition of Plasmepsin II from Plasmodium falciparum by KNI-10033, KNI-10030 and KNI-10006 at 20° C. in 10 mM sodium citrate, 100 mM NaCl, 2% DMSO, pH 4.0. The inhibition constants are 3 nM, 11 nM and 0.5 rLM respectively.\n(§1) The specific activity of plasmepsin II from Plasmodium falciparum (Plm II) cloned in and purified from Escherchia coli and commercially available human Cathepsin D were measured by following the hydrolysis of the chromogenic substrate Ala-Leu-Glu-Arg-Thr-nPhe-Phe-Ser-Phe-Pro-Thr-OH (California Peptide Research Inc., Napa, Calif.). The decrease in absorbance upon hydrolysis is monitored at 300 nm. Typical Plasmepsin II preparations hydrolyze chromogenic substrate at 4-5 s^−1 at 37° C. The inhibition assays were performed at 25° C. in 10 mM sodium formate, 2% DMSO, pH 4.0. These pH conditions mimic the conditions in the food vacuole of the parasite. […] Inhibition constants (Ki) for the inhibitors are obtained at the desired temperature and solvent conditions by measuring the rate of substrate hydrolysis at increasing amounts of inhibitors. Exemplary results from three compounds (KNI-10033, KNI-10030 and KNI-10006) are shown in FIG. 7A-C, and the results obtained with all KNI compounds tested are given in Table 1."}, "human Cathepsin D": {"biological_target": "T2, human Cathepsin D (Homo sapiens, UniProt P07339)", "T2 construct": "purchased", "T2 sequence (P07339 65-412)": "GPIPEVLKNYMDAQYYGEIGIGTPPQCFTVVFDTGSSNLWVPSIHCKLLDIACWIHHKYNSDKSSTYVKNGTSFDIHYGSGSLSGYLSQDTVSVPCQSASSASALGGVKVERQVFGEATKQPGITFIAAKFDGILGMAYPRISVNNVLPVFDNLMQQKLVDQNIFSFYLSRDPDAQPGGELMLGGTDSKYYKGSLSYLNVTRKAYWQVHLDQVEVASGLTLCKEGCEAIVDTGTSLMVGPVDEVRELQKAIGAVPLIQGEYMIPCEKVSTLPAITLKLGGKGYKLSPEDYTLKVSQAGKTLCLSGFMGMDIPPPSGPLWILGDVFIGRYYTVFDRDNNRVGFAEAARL", "experiment": "Cathepsin D inhibition assay, hydrolysis of chromogenic substrate", "type": "biochemical", "experimental": "as §1"}, "[2]": {"conditions": "25° C., 10 mM sodium formate, 2% DMSO, pH 4.0, fit to competitive inhibition, read-out: Ki Plm II"}, "[3]": {"conditions": "Table 2, read-out: Ki Plasmepsin II"}, "[4]": {"conditions": "25° C., 10 mM sodium formate, 2% DMSO, pH 4.0, fit to competitive inhibition, read-out: Ki CatD"}, "[5]": {"conditions": "Table 2, read-out: Ki Cathepsin D"}}, "note": "Like-named read-outs stand apart in the source and are kept apart here."}
{"molecule": "Cc1cccc(C)c1OCC(=O)N[C@@H](Cc1ccccc1)[C@H](O)C(=O)N1CSC(C)(C)[C@H]1C(=O)N[C@H](CO)c1ccccc1", "note": "[KNI-10043]", "values": [{"measurement": "inhibition constants against Plasmepsin II, in words", "setting": "[1]", "value": "nanomolar and subnanomolar range"}, {"measurement": "Ki", "setting": "[1]; [2]", "value": "22 ± 5", "unit": "nM"}, {"measurement": "Ki", "setting": "[1]; [3]", "value": 22, "unit": "nM"}, {"measurement": "Discrimination Factor: Fold Selectivity for Plasmepsin II over Cathepsin D", "setting": "[1]", "value": 2.4}, {"measurement": "Ki", "setting": "human Cathepsin D; [4]", "value": "53 ± 8", "unit": "nM"}, {"measurement": "Ki", "setting": "human Cathepsin D; [5]", "value": 53, "unit": "nM"}]}
{"molecule": "CC(C)(C)NC(=O)[C@@H]1CSCN1C(=O)[C@@H](O)[C@H](Cc1ccccc1)NC(=O)CC(C)(C)C(=O)O", "note": "[KNI-391]", "values": [{"measurement": "Ki", "setting": "[1]; [2]", "value": "12700 ± 1500", "unit": "nM"}, {"measurement": "Ki", "setting": "human Cathepsin D; [4]", "value": "1350 ± 80", "unit": "nM"}, {"measurement": "Ki", "setting": "human Cathepsin D; read-out: Ki for Cathepsin D", "value": 1350, "unit": "nM"}]}
{"molecule": "CCC[C@H](NC(=O)COc1cccc2cnccc12)C(=O)N[C@@H](Cc1ccccc1)[C@H](O)C(=O)N1CSC(C)(C)[C@H]1C(=O)NC(C)(C)C", "note": "[KNI-10042]", "values": [{"measurement": "Ki", "setting": "[1]; [2]", "value": "222 ± 17", "unit": "nM"}, {"measurement": "Ki", "setting": "human Cathepsin D; [4]", "value": "2260 ± 166", "unit": "nM"}]}
{"molecule": "Cc1cccc(C)c1OCC(=O)N[C@@H](Cc1ccccc1)[C@H](O)C(=O)N1CSC(C)(C)[C@H]1C(=O)N[C@H]1CCc2ccccc21", "note": "[KNI-10026]", "values": [{"measurement": "inhibition constants against Plasmepsin II, in words", "setting": "[1]", "value": "nanomolar and subnanomolar range"}, {"measurement": "Ki", "setting": "[1]; [2]", "value": "15 ± 5", "unit": "nM"}, {"measurement": "Ki", "setting": "[1]; [3]", "value": 15, "unit": "nM"}, {"measurement": "Discrimination Factor: Fold Selectivity for Plasmepsin II over Cathepsin D", "setting": "[1]", "value": 7}, {"measurement": "Ki", "setting": "human Cathepsin D; [4]", "value": "105 ± 18", "unit": "nM"}, {"measurement": "Ki", "setting": "human Cathepsin D; [5]", "value": 105, "unit": "nM"}]}
{"molecule": "CCSC[C@H](NC(=O)COc1cccc2cnccc12)C(=O)N[C@@H](Cc1ccccc1)[C@H](O)C(=O)N1CSC(C)(C)[C@H]1C(=O)NC(C)(C)C", "note": "[KNI-10057]", "values": [{"measurement": "Ki", "setting": "[1]; [2]", "value": "428 ± 21", "unit": "nM"}, {"measurement": "Ki", "setting": "human Cathepsin D; [4]", "value": "5300 ± 633", "unit": "nM"}]}
{"molecule": "CC[C@H](C)[C@H](NC(=O)COc1cccc2cnccc12)C(=O)N[C@@H](Cc1ccccc1)[C@H](O)C(=O)N1CSC(C)(C)[C@H]1C(=O)NC(C)(C)C", "note": "[KNI-10001]", "values": [{"measurement": "Ki", "setting": "[1]; [2]", "value": "359 ± 60", "unit": "nM"}, {"measurement": "Ki", "setting": "human Cathepsin D; [4]", "value": "1610 ± 330", "unit": "nM"}]}
{"molecule": "CC(C)[C@H](NC(=O)c1cccc2ccccc12)C(=O)N[C@@H](Cc1ccccc1)[C@H](O)C(=O)N1CSC(C)(C)[C@H]1C(=O)NC(C)(C)C", "note": "[KNI-10027]", "values": [{"measurement": "Ki", "setting": "[1]; [2]", "value": "1070 ± 90", "unit": "nM"}, {"measurement": "Ki", "setting": "human Cathepsin D; [4]", "value": "1030 ± 200", "unit": "nM"}]}
{"molecule": "CC(C)C(NC(=O)COc1ccccc1)C(=O)NC(Cc1ccccc1)C(O)C(=O)N1CSC(C)(C)C1C(=O)NC(C)(C)C", "note": "(centres unmarked) [KNI-10056]", "values": [{"measurement": "Ki", "setting": "[1]; [2]", "value": "1770 ± 154", "unit": "nM"}, {"measurement": "Ki", "setting": "human Cathepsin D; [4]", "value": "1280 ± 161", "unit": "nM"}]}
{"molecule": "CC(C)[C@H](NC(=O)c1cc(=O)c2ccccc2o1)C(=O)N[C@@H](Cc1ccccc1)[C@H](O)C(=O)N1CSC(C)(C)[C@H]1C(=O)NC(C)(C)C", "note": "[KNI-10002]", "values": [{"measurement": "Ki", "setting": "[1]; [2]", "value": "244 ± 20", "unit": "nM"}, {"measurement": "Ki", "setting": "human Cathepsin D; [4]", "value": "112 ± 20", "unit": "nM"}]}
{"molecule": "CSCC[C@H](NC(=O)COc1cccc2cnccc12)C(=O)N[C@@H](Cc1ccccc1)[C@H](O)C(=O)N1CSC(C)(C)[C@H]1C(=O)NC(C)(C)C", "note": "[KNI-10032]", "values": [{"measurement": "Ki", "setting": "[1]; [2]", "value": "535 ± 55", "unit": "nM"}, {"measurement": "Ki", "setting": "human Cathepsin D; [4]", "value": "2620 ± 390", "unit": "nM"}]}
{"molecule": "Cc1cccc(C)c1OCC(=O)N[C@@H](Cc1ccccc1)[C@H](O)C(=O)N1CSC(C)(C)[C@H]1C(=O)N[C@H](C)c1ccccc1", "note": "[KNI-10030]", "values": [{"measurement": "Ki", "setting": "[1]; 20° C., 10 mM sodium citrate, 100 mM NaCl, 2% DMSO, pH 4.0, read-out: inhibition constant, Plasmepsin II (FIG. 7)", "value": 11, "unit": "nM"}, {"measurement": "Ki", "setting": "[1]; [3]", "value": 11, "unit": "nM"}, {"measurement": "Discrimination Factor: Fold Selectivity for Plasmepsin II over Cathepsin D", "setting": "[1]", "value": "~10"}, {"measurement": "Ki", "setting": "human Cathepsin D; [4]", "value": "111 ± 15", "unit": "nM"}, {"measurement": "Ki", "setting": "human Cathepsin D; [5]", "value": 111, "unit": "nM"}]}
{"molecule": "CC(C)[C@H](NC(=O)c1ccc2ccccc2n1)C(=O)N[C@@H](Cc1ccccc1)[C@H](O)C(=O)N1CSC(C)(C)[C@H]1C(=O)NC(C)(C)C", "note": "[KNI-10004]", "values": [{"measurement": "Ki", "setting": "[1]; [2]", "value": "522 ± 50", "unit": "nM"}, {"measurement": "Ki", "setting": "human Cathepsin D; [4]", "value": "290 ± 90", "unit": "nM"}]}
{"molecule": "CC(C)[C@H](NC(=O)c1cc2ccccc2o1)C(=O)N[C@@H](Cc1ccccc1)[C@H](O)C(=O)N1CSC(C)(C)[C@H]1C(=O)NC(C)(C)C", "note": "[KNI-10009]", "values": [{"measurement": "Ki", "setting": "[1]; [2]", "value": "2180 ± 250", "unit": "nM"}, {"measurement": "Ki", "setting": "human Cathepsin D; [4]", "value": "515 ± 47", "unit": "nM"}]}
{"molecule": "Cc1cccc(C)c1OCC(=O)N[C@@H](Cc1ccccc1)[C@H](O)C(=O)N1CSC(C)(C)[C@H]1C(=O)NCc1ccccc1O", "note": "[KNI-10047]", "values": [{"measurement": "Ki", "setting": "[1]; [2]", "value": "55 ± 7", "unit": "nM"}, {"measurement": "Ki", "setting": "human Cathepsin D; [4]", "value": "252 ± 53", "unit": "nM"}]}
{"molecule": "CSC[C@H](NC(=O)COc1c(C)cccc1C)C(=O)N[C@@H](Cc1ccccc1)[C@H](O)C(=O)N1CSC(C)(C)[C@H]1C(=O)NC(C)(C)C", "note": "[KNI-10041]", "values": [{"measurement": "Ki", "setting": "[1]; [2]", "value": "496 ± 69", "unit": "nM"}, {"measurement": "Ki", "setting": "human Cathepsin D; [4]", "value": "1670 ± 256", "unit": "nM"}]}
{"molecule": "Cc1cccc(C)c1OCC(=O)N[C@@H](Cc1ccccc1)[C@H](O)C(=O)N1CSC(C)(C)[C@H]1C(=O)Nc1cccc2ccccc12", "note": "[KNI-10031]", "values": [{"measurement": "Ki", "setting": "[1]; [2]", "value": "83 ± 7", "unit": "nM"}, {"measurement": "Ki", "setting": "human Cathepsin D; [4]", "value": "130 ± 19", "unit": "nM"}]}
